From PMC10838953

Tests used:
CAMK2D = CAMK2D (Homo sapiens, UniProt Q13557); assay: biochemical; details: read-out: %Ctrl @ 2000nM
PFTK1 = PFTK1 (Homo sapiens, UniProt O94921); assay: biochemical; details: read-out: %Ctrl @ 2000nM
RIPK1 = RIPK1 (Homo sapiens, UniProt Q13546); assay: biochemical; details: read-out: %Ctrl @ 2000nM
STK33 = STK33 (Homo sapiens, UniProt Q9BYT3); assay: biochemical; details: read-out: %Ctrl @ 2000nM
MAP3K15 = MAP3K15 (Homo sapiens, UniProt Q6ZN16); assay: biochemical; details: read-out: %Ctrl @ 2000nM
RET(V804L) = RET(V804L) (Homo sapiens, UniProt P07949, V804L); assay: biochemical; details: read-out: %Ctrl @ 2000nM
p38-delta = p38-delta (Homo sapiens, UniProt O15264); assay: biochemical; details: read-out: %Ctrl @ 2000nM
Sequence of p38-delta (O15264 whole entry): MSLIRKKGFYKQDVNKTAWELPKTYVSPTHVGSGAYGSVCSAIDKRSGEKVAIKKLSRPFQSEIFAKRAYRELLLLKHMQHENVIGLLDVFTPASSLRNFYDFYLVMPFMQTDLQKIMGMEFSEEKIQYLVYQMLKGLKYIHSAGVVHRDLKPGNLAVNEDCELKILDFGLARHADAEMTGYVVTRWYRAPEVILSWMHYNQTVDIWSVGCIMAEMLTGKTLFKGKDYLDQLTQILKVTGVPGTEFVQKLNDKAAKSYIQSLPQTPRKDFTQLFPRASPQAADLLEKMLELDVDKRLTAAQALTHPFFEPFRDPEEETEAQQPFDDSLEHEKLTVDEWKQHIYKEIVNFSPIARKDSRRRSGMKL

TAOK1 = TAOK1 (Homo sapiens, UniProt Q7L7X3); assay: biochemical; details: read-out: %Ctrl @ 2000nM
ULK1 = ULK1 (Homo sapiens, UniProt O75385); assay: biochemical; details: read-out: %Ctrl @ 2000nM
ALK(C1156Y) = ALK(C1156Y) (Homo sapiens, UniProt Q9UM73, C1156Y); assay: biochemical; details: read-out: %Ctrl @ 2000nM
PCTK1 = PCTK1 (Homo sapiens, UniProt Q00536); assay: biochemical; details: read-out: %Ctrl @ 2000nM
TIE2 = TIE2 (Homo sapiens, UniProt Q02763); assay: biochemical; details: read-out: %Ctrl @ 2000nM
RET(V804M) = RET(V804M) (Homo sapiens, UniProt P07949, V804M); assay: biochemical; details: read-out: %Ctrl @ 2000nM
CDK4-cyclinD3 = CDK4-cyclinD3 (Homo sapiens, UniProt P11802); assay: biochemical; details: read-out: %Ctrl @ 2000nM
Sequence of CDK4-cyclinD3 (P11802 whole entry): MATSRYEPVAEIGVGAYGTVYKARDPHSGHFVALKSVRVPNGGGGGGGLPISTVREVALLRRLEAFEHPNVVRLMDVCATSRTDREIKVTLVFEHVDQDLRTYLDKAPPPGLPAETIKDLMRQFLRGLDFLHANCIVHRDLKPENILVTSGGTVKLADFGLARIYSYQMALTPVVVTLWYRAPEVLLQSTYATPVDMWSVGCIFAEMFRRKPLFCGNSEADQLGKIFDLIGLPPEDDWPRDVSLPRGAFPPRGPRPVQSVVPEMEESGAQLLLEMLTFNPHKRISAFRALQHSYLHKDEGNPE
Sequence of CDK4-cyclinD3 (P30281 whole entry partner): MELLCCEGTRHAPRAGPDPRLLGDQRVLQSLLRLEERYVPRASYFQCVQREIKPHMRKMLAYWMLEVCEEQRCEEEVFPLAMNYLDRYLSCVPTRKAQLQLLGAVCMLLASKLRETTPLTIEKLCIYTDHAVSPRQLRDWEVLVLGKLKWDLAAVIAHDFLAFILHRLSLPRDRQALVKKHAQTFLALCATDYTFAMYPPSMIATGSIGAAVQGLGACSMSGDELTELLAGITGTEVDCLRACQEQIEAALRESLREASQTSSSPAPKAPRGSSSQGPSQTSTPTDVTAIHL

786-O cells = details: 48 h
FLT3(R834Q) = FLT3(R834Q) (Homo sapiens, UniProt P36888, R834Q); assay: biochemical; details: read-out: %Ctrl @ 2000nM
MAP4K2 = MAP4K2 (Homo sapiens, UniProt Q12851); assay: biochemical; details: read-out: %Ctrl @ 2000nM
HIPK2 = HIPK2 (Homo sapiens, UniProt Q9H2X6); assay: biochemical; details: read-out: %Ctrl @ 2000nM
Sequence of HIPK2 (Q9H2X6 whole entry): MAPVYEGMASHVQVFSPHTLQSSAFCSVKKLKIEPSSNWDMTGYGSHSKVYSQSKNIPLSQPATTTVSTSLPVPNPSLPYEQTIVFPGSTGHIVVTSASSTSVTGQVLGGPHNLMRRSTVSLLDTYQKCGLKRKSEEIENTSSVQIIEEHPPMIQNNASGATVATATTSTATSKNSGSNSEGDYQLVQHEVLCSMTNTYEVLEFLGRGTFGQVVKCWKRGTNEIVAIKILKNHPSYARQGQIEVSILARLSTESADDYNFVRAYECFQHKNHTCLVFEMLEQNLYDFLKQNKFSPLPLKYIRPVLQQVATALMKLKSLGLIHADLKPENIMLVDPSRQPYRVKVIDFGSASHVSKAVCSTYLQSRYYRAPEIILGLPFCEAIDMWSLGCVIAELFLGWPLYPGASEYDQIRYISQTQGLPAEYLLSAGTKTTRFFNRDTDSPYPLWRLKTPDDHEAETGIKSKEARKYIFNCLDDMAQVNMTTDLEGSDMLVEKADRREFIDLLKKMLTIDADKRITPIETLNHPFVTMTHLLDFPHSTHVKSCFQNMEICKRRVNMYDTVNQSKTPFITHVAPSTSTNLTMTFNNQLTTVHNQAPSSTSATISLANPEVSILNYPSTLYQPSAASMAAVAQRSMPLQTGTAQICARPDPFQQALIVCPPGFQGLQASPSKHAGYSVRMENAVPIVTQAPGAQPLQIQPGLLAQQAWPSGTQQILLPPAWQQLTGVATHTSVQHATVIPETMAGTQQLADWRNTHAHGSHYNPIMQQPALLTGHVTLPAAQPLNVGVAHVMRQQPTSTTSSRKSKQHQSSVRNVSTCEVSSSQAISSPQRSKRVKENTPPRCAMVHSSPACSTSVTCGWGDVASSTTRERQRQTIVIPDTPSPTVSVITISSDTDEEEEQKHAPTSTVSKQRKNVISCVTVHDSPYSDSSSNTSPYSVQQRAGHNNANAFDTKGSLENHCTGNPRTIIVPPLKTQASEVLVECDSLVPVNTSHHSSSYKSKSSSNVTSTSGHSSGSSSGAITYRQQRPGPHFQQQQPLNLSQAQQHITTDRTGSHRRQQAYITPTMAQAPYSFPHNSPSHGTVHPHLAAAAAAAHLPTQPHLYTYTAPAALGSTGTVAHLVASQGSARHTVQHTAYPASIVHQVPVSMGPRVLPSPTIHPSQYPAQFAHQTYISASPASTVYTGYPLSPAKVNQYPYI

PRKD2 = PRKD2 (Homo sapiens, UniProt Q9BZL6); assay: biochemical; details: read-out: %Ctrl @ 2000nM
MET = MET (Homo sapiens, UniProt P08581); assay: biochemical; details: read-out: %Ctrl @ 2000nM
ERK5 = ERK5 (Homo sapiens, UniProt Q13164); assay: biochemical; details: read-out: %Ctrl @ 2000nM
Sequence of ERK5 (Q13164 whole entry): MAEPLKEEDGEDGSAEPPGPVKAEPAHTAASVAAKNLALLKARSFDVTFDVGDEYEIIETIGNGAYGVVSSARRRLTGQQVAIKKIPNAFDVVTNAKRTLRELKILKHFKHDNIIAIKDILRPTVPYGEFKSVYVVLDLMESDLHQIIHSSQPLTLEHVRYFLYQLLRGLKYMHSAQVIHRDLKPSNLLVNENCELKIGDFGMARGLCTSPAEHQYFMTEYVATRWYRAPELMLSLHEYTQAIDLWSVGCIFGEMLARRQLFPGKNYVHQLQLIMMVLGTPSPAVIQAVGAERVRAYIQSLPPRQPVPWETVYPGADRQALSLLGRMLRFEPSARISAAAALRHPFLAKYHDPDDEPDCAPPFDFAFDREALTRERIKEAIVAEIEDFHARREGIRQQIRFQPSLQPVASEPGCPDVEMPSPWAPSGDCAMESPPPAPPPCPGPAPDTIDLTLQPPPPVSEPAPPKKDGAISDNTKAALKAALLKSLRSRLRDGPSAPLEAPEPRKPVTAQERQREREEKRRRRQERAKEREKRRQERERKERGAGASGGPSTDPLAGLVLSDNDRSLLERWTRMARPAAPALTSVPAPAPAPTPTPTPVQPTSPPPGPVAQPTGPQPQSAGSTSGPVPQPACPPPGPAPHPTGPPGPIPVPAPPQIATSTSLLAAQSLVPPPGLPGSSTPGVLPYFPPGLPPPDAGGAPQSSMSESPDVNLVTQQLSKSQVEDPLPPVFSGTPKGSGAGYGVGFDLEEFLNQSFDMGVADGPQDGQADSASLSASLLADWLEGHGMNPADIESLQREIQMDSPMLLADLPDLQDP

ARK5 = ARK5 (Homo sapiens, UniProt O60285); assay: biochemical; details: read-out: %Ctrl @ 2000nM
p21 (T145) = details: HEK293 cells; 48 h
ANKK1 = ANKK1 (Homo sapiens, UniProt Q8NFD2); assay: biochemical; details: read-out: %Ctrl @ 2000nM
LOK = LOK (Homo sapiens, UniProt O94804); assay: biochemical; details: read-out: %Ctrl @ 2000nM
EPHA3 = EPHA3 (Homo sapiens, UniProt P29320); assay: biochemical; details: read-out: %Ctrl @ 2000nM
primary hepatocytes = assay: cells; details: Hepatocyte, read-out: IC50 cell viability
PAK2 = PAK2 (Homo sapiens, UniProt Q13177); assay: biochemical; details: read-out: %Ctrl @ 2000nM
TXK = TXK (Homo sapiens, UniProt P42681); assay: biochemical; details: read-out: %Ctrl @ 2000nM
PIM2 = PIM2 (Homo sapiens, UniProt Q9P1W9); assay: biochemical; details: read-out: %Ctrl @ 2000nM
EGFR(S752-I759del) = EGFR(S752-I759del) (Homo sapiens, UniProt P00533, DEL752-759); assay: biochemical; details: read-out: %Ctrl @ 2000nM
[1] = target: RSK2(Kin.Dom.2-C-terminal) (Homo sapiens, UniProt P51812); assay: biochemical; details: read-out: %Ctrl @ 2000nM
EPHA5 = EPHA5 (Homo sapiens, UniProt P54756); assay: biochemical; details: read-out: %Ctrl @ 2000nM
FER = FER (Homo sapiens, UniProt P16591); assay: biochemical; details: read-out: %Ctrl @ 2000nM
FLT3(K663Q) = FLT3(K663Q) (Homo sapiens, UniProt P36888, K663Q); assay: biochemical; details: read-out: %Ctrl @ 2000nM
PIK4CB = PIK4CB (Homo sapiens, UniProt Q9UBF8); assay: biochemical; details: read-out: %Ctrl @ 2000nM
Sequence of PIK4CB (Q9UBF8 whole entry): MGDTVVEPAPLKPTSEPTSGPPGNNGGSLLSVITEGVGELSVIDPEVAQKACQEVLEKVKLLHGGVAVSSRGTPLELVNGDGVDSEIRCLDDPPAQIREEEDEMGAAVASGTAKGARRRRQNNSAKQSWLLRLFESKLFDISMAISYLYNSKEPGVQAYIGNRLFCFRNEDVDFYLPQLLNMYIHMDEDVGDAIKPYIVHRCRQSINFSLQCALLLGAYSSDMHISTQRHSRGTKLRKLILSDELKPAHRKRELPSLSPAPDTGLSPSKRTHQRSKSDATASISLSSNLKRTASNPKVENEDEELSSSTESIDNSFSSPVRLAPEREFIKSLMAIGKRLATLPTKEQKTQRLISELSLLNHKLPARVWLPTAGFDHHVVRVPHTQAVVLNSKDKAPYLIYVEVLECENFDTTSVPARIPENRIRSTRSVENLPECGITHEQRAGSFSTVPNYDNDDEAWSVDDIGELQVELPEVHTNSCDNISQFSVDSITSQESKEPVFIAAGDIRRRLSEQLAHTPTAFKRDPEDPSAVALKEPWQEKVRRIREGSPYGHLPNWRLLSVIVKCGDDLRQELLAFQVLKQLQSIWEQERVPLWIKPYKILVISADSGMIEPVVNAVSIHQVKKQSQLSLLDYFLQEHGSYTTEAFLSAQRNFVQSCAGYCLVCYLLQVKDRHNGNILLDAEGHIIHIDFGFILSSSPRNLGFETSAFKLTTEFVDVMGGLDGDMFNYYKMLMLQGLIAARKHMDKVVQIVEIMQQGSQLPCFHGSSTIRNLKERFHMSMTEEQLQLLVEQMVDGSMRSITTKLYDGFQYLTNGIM

BLK = BLK (Homo sapiens, UniProt P51451); assay: biochemical; details: read-out: %Ctrl @ 2000nM
MET(Y1235D) = MET(Y1235D) (Homo sapiens, UniProt P08581, Y1235D); assay: biochemical; details: read-out: %Ctrl @ 2000nM
MEK3 = MEK3 (Homo sapiens, UniProt P46734); assay: biochemical; details: read-out: %Ctrl @ 2000nM
SRPK1 = SRPK1 (Homo sapiens, UniProt Q96SB4); assay: biochemical; details: read-out: %Ctrl @ 2000nM
Sequence of SRPK1 (Q96SB4 whole entry): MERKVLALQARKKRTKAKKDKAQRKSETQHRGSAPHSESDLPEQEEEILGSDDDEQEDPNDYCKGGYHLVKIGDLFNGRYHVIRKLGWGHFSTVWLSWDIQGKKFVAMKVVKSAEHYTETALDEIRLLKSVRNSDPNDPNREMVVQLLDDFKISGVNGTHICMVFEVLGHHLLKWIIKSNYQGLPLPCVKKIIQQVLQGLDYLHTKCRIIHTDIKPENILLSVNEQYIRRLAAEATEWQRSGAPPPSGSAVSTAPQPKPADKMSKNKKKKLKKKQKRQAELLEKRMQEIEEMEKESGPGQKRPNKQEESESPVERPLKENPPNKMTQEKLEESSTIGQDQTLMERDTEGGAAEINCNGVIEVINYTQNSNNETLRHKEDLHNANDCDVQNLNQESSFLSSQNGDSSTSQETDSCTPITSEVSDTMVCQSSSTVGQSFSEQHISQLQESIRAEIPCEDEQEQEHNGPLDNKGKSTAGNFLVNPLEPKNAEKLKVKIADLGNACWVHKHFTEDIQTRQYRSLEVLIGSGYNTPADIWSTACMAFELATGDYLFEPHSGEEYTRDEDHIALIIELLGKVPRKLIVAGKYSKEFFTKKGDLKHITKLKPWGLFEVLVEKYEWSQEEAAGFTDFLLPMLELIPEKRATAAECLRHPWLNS

RIOK2 = RIOK2 (Homo sapiens, UniProt Q9BVS4); assay: biochemical; details: read-out: %Ctrl @ 2000nM
MLCK = MLCK (Homo sapiens, UniProt Q32MK0); assay: biochemical; details: read-out: %Ctrl @ 2000nM

Sequence of PFTK1 (O94921 whole entry): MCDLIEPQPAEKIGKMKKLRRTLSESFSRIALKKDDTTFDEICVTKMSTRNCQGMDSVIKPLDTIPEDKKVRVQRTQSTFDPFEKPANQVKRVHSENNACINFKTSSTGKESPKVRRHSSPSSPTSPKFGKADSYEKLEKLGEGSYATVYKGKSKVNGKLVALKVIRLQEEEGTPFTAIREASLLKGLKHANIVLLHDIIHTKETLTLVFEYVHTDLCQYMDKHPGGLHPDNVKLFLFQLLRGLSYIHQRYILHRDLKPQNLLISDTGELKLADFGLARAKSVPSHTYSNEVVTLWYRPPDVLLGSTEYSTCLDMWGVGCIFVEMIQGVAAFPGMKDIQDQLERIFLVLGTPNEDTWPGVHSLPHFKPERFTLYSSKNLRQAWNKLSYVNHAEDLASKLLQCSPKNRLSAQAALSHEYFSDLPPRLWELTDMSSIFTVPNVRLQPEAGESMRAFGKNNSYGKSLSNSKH

Compound: CC(C)COC(=O)c1[nH]c2ccc(F)cc2c1-c1cn(CC2CCN(CCNS(=O)(=O)c3ccc(CC(C)C)cc3)CC2)nn1 [AB668, isobutyl 5-fluoro-3-(1-((1-(2-((4-isobutylphenyl)sulfonamido)ethyl)piperidin-4-yl)methyl)-1H-1,2,3-triazol-4-yl)-1H-indole-2-carboxylate]
- remaining activity at 2 µM (CAMK2D): 89%
- remaining activity at 2 µM (PFTK1): 84%
- remaining activity at 2 µM (RIPK1): 96%
- remaining activity at 2 µM (STK33): 67%
- remaining activity at 2 µM (MAP3K15): 51%
- remaining activity at 2 µM (RET(V804L)): 93%
- remaining activity at 2 µM (p38-delta): 96%
- remaining activity at 2 µM (TAOK1): 100%
- remaining activity at 2 µM (ULK1): 77%
- remaining activity at 2 µM (ALK(C1156Y)): 81%
- remaining activity at 2 µM (PCTK1): 94%
- remaining activity at 2 µM (TIE2): 83%
- remaining activity at 2 µM (RET(V804M)): 76%
- remaining activity at 2 µM (CDK4-cyclinD3): 96%
- proliferation, cell death and apoptosis (786-O cells; 4 μM): induced significant cell proliferation arrest associated with cell death and apoptosis
- renal cancer cell death, dose dependent (786-O cells; low concentration (<5μM)): more efficient than CX-4945 and SGC-CK2-1
- remaining activity at 2 µM (FLT3(R834Q)): 77%
- remaining activity at 2 µM (MAP4K2): 100%
- remaining activity at 2 µM (HIPK2): 100%
- remaining activity at 2 µM (PRKD2): 88%
- remaining activity at 2 µM (MET): 100%
- remaining activity at 2 µM (ERK5): 88%
- remaining activity at 2 µM (ARK5): 83%
- p21 phosphorylation (p21 (T145)): weakly affected
- remaining activity at 2 µM (ANKK1): 100%
- remaining activity at 2 µM (LOK): 100%
- remaining activity at 2 µM (EPHA3): 86%
- IC50 (primary hepatocytes): > 100 µM
- remaining activity at 2 µM (PAK2): 81%
- remaining activity at 2 µM (TXK): 92%
- remaining activity at 2 µM (PIM2): 84%
- remaining activity at 2 µM (EGFR(S752-I759del)): 80%
- remaining activity at 2 µM [1]: 81%
- remaining activity at 2 µM (EPHA5): 100%
- remaining activity at 2 µM (FER): 100%
- remaining activity at 2 µM (FLT3(K663Q)): 96%
- remaining activity at 2 µM (PIK4CB): 75%
- remaining activity at 2 µM (BLK): 100%
- remaining activity at 2 µM (MET(Y1235D)): 74%
- remaining activity at 2 µM (MEK3): 100%
- remaining activity at 2 µM (SRPK1): 88%
- remaining activity at 2 µM (RIOK2): 73%
- remaining activity at 2 µM (MLCK): 100%
